Experimental data taken from patent US11578055B2, “Triazacyclododecansulfonamide (“TCD”)-based protein secretion inhibitors” (KEZAR LIFE SCIENCES, priority 2018, dated 2023).
Counter-ions that a name gives are not always drawn. Like-named read-outs stand apart in the source and are kept apart here.

Columns and labels:
[1] = test system: full length TNFα (amino acids 1-233) fused to Gaussia Luciferase; experiment: Dox Induced TNFα-FL-Gluc Assay; format: cell-based; conditions: 24 hr, read-out: 24 hr Dox Inducible TNFaFLGluc 293FRT/TO: Mean IC50
Source text: (§1) FIp-In 293 T-REx™ cells were transfected with pcDNA™5/FRT/TO plasmid inserted with cDNA encoding Gaussia Luciferase fused to the 3′ end of cDNA encoding full length TNFα (amino acids 1-233). Transfected cells were selected for resistance to the selectable markers Hygromycin and Blasticidin to create a stable cell line that contained the TNFα-FL/Gaussia Luciferase cDNA insert whose expression was regulated under the T-REx™ system. The day before assay, cells were trypsinized and plated in 384-well tissue culture plates. The next day, compound dilutions in DMSO/media containing doxycycline were added to the wells and incubated at 37° C., 5% CO2.
(§2) For chemical structures that include one or more stereoisomers, but are illustrated without indicating stereochemistry, the assay data refers to a mixture of stereoisomers.

[2] = In Vitro Microsome Stability Assay (monkey); format: in vitro ADME
Protocol: (§3) Potassium phosphate (423 μL of a 0.1 M solution) was added to 8-strip deep well tubes followed by human, mouse, rat, or monkey microsomes (25 μL of a 20 mg/mL solution). The tubes were then placed on ice and the test article (2 μL of a 0.25 mM solution in DMSO) was added. The mixture was preincubated at 37° C. for 3 to 5 minutes (shaking at 150 rpm) then the reaction was initiated by adding 50 μL NADPH. An aliquot of samples (100 μL) were collected at 0 and 30 min and 200 μL of an acetonitrile mixture containing IS (compound 914) was added to quench the reaction. After centrifuging for 10 min at 4000 rpm, a mixed solution of the 20 μL of the supernatant (20 μL) plus 100 μL ACN/H2O (1:1) were injected for LC-MS/MS analysis. Liver microsome stability is assessed by the % remaining of compound at 30 min which is calculated using the following equation: [(AUCanalyteT=30/AUCIS)/(AUCanalyteT=0/AUCIS)]*100
as §2

[3] = test system: multiple myeloma cell line NCl-H929; experiment: H929 Cell Viability Assay; format: cell-based, human; conditions: Homo sapiens, NCI-H929, 48 h
Protocol: The human multiple myeloma cell line NCl-H929 was cultured in Advanced RPMI 1640 media (Gibco®) supplemented with 6% fetal bovine serum, 2 mM Glutamine, and 1× Penicillin/Streptomycin. On the day of assay, cells were resuspended in RPMI 1640 media supplemented with 10% fetal bovine serum, 2 mM Glutamine, and 1× Penicillin/Streptmycin and plated in 384-well tissue culture plates and treated with compound dilutions in DMSO/media. Plates were incubated at 37° C., 5% CO2 for 48 hours. After 48 hours, Celltiter-Glo® (Promega) was added to each well and luciferase signal was quantified using Tecan Infinite M1000 Pro for cell viability determination.
as §2

[4] = In Vitro Microsome Stability Assay (rat); format: in vitro ADME
Protocol: as §3, §2

[5] = test system: multiple myeloma cell line U266B1; experiment: U266 Cell Viability Assay; format: cell-based, human; conditions: Homo sapiens, U-266, 48 hr
Protocol: The human multiple myeloma cell line U266B1 was cultured in RPMI 1640 media supplemented with 10% fetal bovine serum, 2 mM Glutamine, and 1× Penicillin/Streptomycin. Cells were plated in 384-well tissue culture plates and treated with compound dilutions in DMSO/media. Plates were incubated at 37° C., 5% CO2 for 48 hours. After 48 hours, Celltiter-Glo® (Promega) was added to each well and luciferase signal was quantified using Tecan Infinite M1000 Pro for cell viability determination.
For chemical structures that include one or more stereoisomers, but are illustrated without indicating stereochemistry, the assay data refers to a mixture of stereoisomers

[6] = In Vitro Microsome Stability Assay (human); format: in vitro ADME
Protocol: as §3, §2

[7] = In Vitro Microsome Stability Assay (mouse); format: in vitro ADME
Protocol: as §3, §2

[8] = test system: PD1 signal sequence plus 10 amino acids fused to Gaussia Luciferase (PD1-ss+10aa/Gaussia Luciferase); experiment: Dox Induced PD1-ss-Gluc Assay; format: cell-based; conditions: 24 hr, read-out: 24 hr Dox Inducible PD1ssGluc 293FRT/TO: Mean IC50
Source text: as §1, with “PD1 signal sequence plus 10 amino” for “full length TNFα (amino”, “(N-[…]-C) (SEQ ID NO: 1).” for “1-233).”, “PD1-ss+10aa/Gaussia” for “TNFα-FL/Gaussia”
as §2

[9] = H929, read-out: 48 hr H929 Viability Celltiter-Glo: Mean EC50
[10] = U266, read-out: 48 hr U266 Viability Celltiter-Glo: Mean EC50

IC50 ([1]; 293FRT/TO)	Liver Microsome Stability-% Left after 30 min w/ NADPH (%) Monkey ([2]; monkey, 30 min, NADPH)	EC50 [3, 9]	Liver Microsome Stability-% Left after 30 min w/ NADPH (%) Rat ([4]; rat, 30 min, NADPH)	EC50 [5, 10]	Liver Microsome Stability-% Left after 30 min w/ NADPH (%) Human ([6]; human, 30 min, NADPH)	Liver Microsome Stability-% Left after 30 min w/ NADPH (%) Mouse ([7]; mouse, 30 min, NADPH)	IC50 ([8]; 293FRT/TO)	IC50 ([1]; Dox inducible, 293FRT/TO cells)	Liver Microsome Stability-% Left after 30 min w/ NADPH (%) Monkey ([2]; monkey liver microsomes, 30 min w/ NADPH)	EC50 ([3]; H929, Celltiter-Glo)	Liver Microsome Stability-% Left after 30 min w/ NADPH (%) Rat ([4]; rat liver microsomes, 30 min w/ NADPH)	EC50 ([5]; U266, Celltiter-Glo)	Liver Microsome Stability-% Left after 30 min w/ NADPH (%) Human ([6]; human liver microsomes, 30 min w/ NADPH)	Liver Microsome Stability-% Left after 30 min w/ NADPH (%) Mouse ([7]; mouse liver microsomes, 30 min w/ NADPH)	IC50 ([8]; Dox inducible, 293FRT/TO cells)	Structure (SMILES)
> 25 µM	58.2%	> 25 µM	74.3%	> 25 µM	63%	64.6%	0.136 µM	–	–	–	–	–	–	–	–	C=C1CN(S(=O)(=O)c2ccc(N(C)C)cc2)CCCN(CC2CCCCC2)CCCN(S(=O)(=O)N2CC=C(c3cccc(Cl)c3)CC2)C1 [A69, 4-[(5-{[4-(3-chlorophenyl)-1,2,3,6-tetrahydropyridin-1-yl]sulfonyl}-9-(cyclohexylmethyl)-3-methylidene-1,5,9-triazacyclododecan-1-yl)sulfonyl]-N,N-dimethylaniline]
> 25 µM	0.36%	> 25 µM	1.06%	> 25 µM	0.49%	0.41%	0.943 µM	–	–	–	–	–	–	–	–	CN(C)c1ccc(S(=O)(=O)N2CCCN(CC3CCCCC3)CCCN(S(=O)(=O)N3CCCCC3)CC3(COC3)C2)cc1 [A17, 4-{[10-(cyclohexylmethyl)-14-(piperidine-1-sulfonyl)-2-oxa-6,10,14-triazaspiro[3.11]pentadecan-6-yl]sulfonyl}-N,N-dimethylaniline]
> 25 µM	0.05%	> 25 µM	0.11%	15.5 µM	0.04%	0.05%	> 25 µM	–	–	–	–	–	–	–	–	O=S(=O)(N1CCCCC1)N1CCCN(Cc2ccccc2)CCCN(S(=O)(=O)N2CCCCC2)CC2(CC2)C1 [A18, 9-benzyl-5,13-bis(piperidin-1-ylsulfonyl)-5,9,13-triazaspiro[2.11]tetradecane hydrochloride]
> 15.1 µM	0.04%	> 25 µM	0.12%	> 25 µM	0.04%	0.19%	0.308 µM	–	–	–	–	–	–	–	–	CN(C)c1ccc(S(=O)(=O)N2CCCN(CC3CCCCC3)CCCN(S(=O)(=O)N3CCCCC3)CC3(CC3)C2)c(F)c1 [A40]
4.69 µM	0.14%	2.86 µM	8.85%	> 25 µM	0.77%	0.2%	0.123 µM	–	–	–	–	–	–	–	–	C=C1CN(S(=O)(=O)c2ccc(C)cc2)CCCN(CC2CCC(C)(C)CC2)CCCN(S(=O)(=O)c2ccc(N(C)C)cc2)C1 [A10, 4-((9-((4,4-dimethylcyclohexyl)methyl)-3-methylene-5-tosyl-1,5,9-triazacyclododecan-1-yl)sulfonyl)-N,N-dimethylaniline hydrochloride]
7.81 µM	28.5%	> 25 µM	84%	> 25 µM	31.9%	60.2%	0.0734 µM	–	–	–	–	–	–	–	–	C=C1CN(S(=O)(=O)c2ccc(N(C)C)cc2)CCCN(CC2CCCCC2)CCCN(S(=O)(=O)N2CCC(c3ccccc3Cl)CC2)C1 [A57, 4-[(5-{[4-(2-chlorophenyl)piperidin-1-yl]sulfonyl}-9-(cyclohexylmethyl)-3-methylidene-1,5,9-triazacyclododecan-1-yl)sulfonyl]-N,N-dimethylaniline]
> 25 µM	0.07%	> 25 µM	0.13%	> 25 µM	0.05%	0.08%	> 25 µM	–	–	–	–	–	–	–	–	COc1ccccc1S(=O)(=O)N1CCCN(CC2CCCCC2)CCCN(S(=O)(=O)N2CCCCC2)CC2(CC2)C1 [A33, 9-(cyclohexylmethyl)-5-(2-methoxybenzenesulfonyl)-13-(piperidine-1-sulfonyl)-5,9,13-triazaspiro[2.11]tetradecane]
–	–	–	–	–	–	–	–	> 25 µM	0.23%	> 25 µM	1.46%	> 25 µM	0.35%	0.55%	1.72 µM	C=C1CN(S(=O)(=O)c2ccc(C)cc2)CCCN(CC2CCCCC2)CC(C)CN(S(=O)(=O)c2ccc(C)cc2)C1 (centres unmarked) [B2, 1-(cyclohexylmethyl)-3-methyl-5,9-bis(4-methylbenzenesulfonyl)-7-methylidene-1,5,9-triazacyclododecane]
> 25 µM	0.66%	> 25 µM	0.14%	> 25 µM	0.09%	0.34%	1.11 µM	–	–	–	–	–	–	–	–	C=C1CN(S(=O)(=O)c2ccc(C)cc2)CCCN(CC2CCOCC2)CCCN(S(=O)(=O)c2ccc(N(C)C)cc2)C1 [A9, N,N-dimethyl-4-{[5-(4-methylbenzenesulfonyl)-3-methylidene-9-[(oxan-4-yl)methyl]-1,5,9-triazacyclododecan-1-yl]sulfonyl}aniline]
> 25 µM	0.03%	> 25 µM	0.09%	> 25 µM	0.05%	0.25%	0.619 µM	–	–	–	–	–	–	–	–	COc1ccc(S(=O)(=O)N2CCCN(CC3CCCCC3)CCCN(S(=O)(=O)N3CCCCC3)CC3(CC3)C2)cc1 [A31, 9-(cyclohexylmethyl)-5-(4-methoxybenzenesulfonyl)-13-(piperidine-1-sulfonyl)-5,9,13-triazaspiro[2.11]tetradecane]
